# From patent publication US12102634B2, “Use of berbamine or its analogue for preventing or treating RNA virus infection” (City University of Hong Kong, priority 2019, dated 2024)
# Legend:
# [1] = system: JEV; experiment: High-content image assay (DsRNA immunostaining), JEV infection of A549 cells; conditions: for JEV infection in A549 host cells (relative infectivity, FIG. 8A): 13 compounds from virtual screening; for entry of JEV into the host cells (FIG. 8B): A549 cells; for entry of JEV into the host cells (FIG. 8B) / JEV infection of host cells: about 50 MOI JEV; for JEV infection of host cells: A549 cells pretreated 1 h
# [2] = system: ZIKV; experiment: Viral positive RNA strand hybridization in host cells treated with calcium chelator; format: cell-based, Zika virus
# [3] = system: JEV; experiment: Western blot of JEV envelope protein in A549 cells; conditions: dose dependent
# [4] = system: DENV-2; experiment: DsRNA immunostaining, DENV-2 infection of A549 cells; conditions: pretreated 1 h, about 10 MOI DENV-2, dose dependent
# [5] = system: JEV; experiment: High-content image assay, JEV infection of JEG-3 cells; conditions: JEG-3 cells pretreated 1 h, about 50 MOI, 18 h
# [6] = system: ZIKV; experiment: High-content image assay, ZIKV infection of JEG-3 cells; conditions: JEG-3 cells pretreated 1 h, about 50 MOI, 18 h
# [7] = system: ZIKV; experiment: High-content image assay (DsRNA immunostaining), ZIKV infection of A549 cells; conditions: A549 cells pretreated 1 h, about 50 MOI ZIKV
# [8] = system: TRPMLs; experiment: ML-SA1-induced cytosolic Ca2+ increase in Fura-2-loaded HeLa cells; format: cell-based; conditions: 25 μM
# Description: HeLa cells were grown in 24-well plates to ˜80% confluency. The cells were then loaded with HBSS (Gibco, 14025092) containing 4 μM Fura-2 AM (Invitrogen, F1221) and 0.4% Pluronic™ F-127 (Invitrogen, P3000MP) at room temperature for 30 min. The cells were then washed with Ca^2+-free HBSS containing 2 mM EGTA and incubated in Ca^2+-free HBSS in the presence or absence of berbamine (10 μM) at room temperature for another 30 min. Fluorescence images were acquired at 3 s intervals by alternate excitation at 340 nm and 380 nm with emission at 510 nm using a Nikon Eclipse Ti-S Calcium imaging system. Approximately 1 min after live cell imaging, 200 μM GPN (Abcam, ab145914) or 25 μM ML-SA1 (Tocris Bioscience, 4746) was added to the cells to trigger Ca2+ release from the lysosomes.
# [9] = system: JEV; experiment: Western blot of JEV-NS1 expression in JEV-infected A549 cells; conditions: A549 cells pretreated 1 h
# [10] = system: ZIKV; experiment: Western blot of ZIKV-E expression in ZIKV-infected A549 cells; conditions: A549 cells pretreated 1 h
Structure (SMILES),"JEV infection in A549 host cells (relative infectivity, FIG. 8A) [1]",entry of JEV into the host cells (FIG. 8B) [1],JEV infection in JEG-3 cells [5],ZIKV infection in JEG-3 cells [6],other results
COc1cc2c(cc1OC)C(C)N(C(=O)c1ccc(Br)cc1)CC2 (stereo not shown) [Compound #7],highest potency,effectively block,,,
COc1cc2c(cc1OC)C(c1cc(OC)c(OC)c(OC)c1)OCC2 (stereo not shown) [Compound #9],highest potency,effectively block,,,
CC(=O)OCOC(=O)CN(CC(=O)OCOC(C)=O)c1ccccc1OCCOc1ccccc1N(CC(=O)OCOC(C)=O)CC(=O)OCOC(C)=O [BAPTA-AM],,,,,viral positive RNA strand inside host cells [2]: no ZIKV positive RNA strand was spotted; expression of JEV envelope protein [3]: markedly inhibited
COc1ccc2cc1Oc1ccc(cc1)C[C@H]1c3cc(c(OC)cc3CCN1C)Oc1c(O)c(OC)cc3c1[C@H](C2)N(C)CC3 [fangchinoline],,,significantly inhibited,significantly inhibited,DENV-2 infection in A549 cells [4]: significantly inhibit; JEV infection of host cells [1]: significantly inhibited; ZIKV infection of host cells [7]: significantly inhibited
"CC1CC(C)(C)N(C(=O)CN2C(=O)c3ccccc3C2=O)c2ccccc21 (stereo not shown) [ML-SA1, reference compound]",,,,,cytosolic Ca2+ levels (agonist effect) [8]: markedly increased
COc1ccc2cc1Oc1ccc(cc1)C[C@H]1c3cc(c(OC)cc3CCN1C)Oc1c(OC)c(OC)cc3c1[C@@H](C2)N(C)CC3 [isotetrandrine],,,significantly inhibited,significantly inhibited,DENV-2 infection in A549 cells [4]: significantly inhibit; JEV infection of host cells [1]: significantly inhibited; ZIKV infection of host cells [7]: significantly inhibited
COc1cc(C(=O)N2c3ccccc3CCC2C)cc(OC)c1OC (stereo not shown) [Compound #1],highest potency,effectively block,,,
COc1cccc(C(=O)CC2c3c(cc4c(c3OC)OCO4)CCN2C)c1 (stereo not shown) [Compound #11],highest potency,effectively block,,,
COc1cc2c3cc1Oc1c(OC)c(OC)cc4c1[C@@H](Cc1ccc(OC(=O)c5ccc([N+](=O)[O-])cc5)c(c1)Oc1ccc(cc1)C[C@@H]3N(C)CC2)N(C)CC4 [E6 berbamine],,,significantly inhibited,significantly inhibited,protein expression of JEV-NS1 [9]: strong inhibition; protein expression of ZIKV-E [10]: strong inhibition
